{
  "source": "patent US20140314791A1",
  "about": "“METHODS OF TREATING CANCER” (DANA-FARBER CANCER INSTITUTE, INC., priority 2012, published 2014)",
  "key": {"[1]": {"test_system": "Lkb1-wt cells", "assay": "Array-based viral infection and cell proliferation assay (validation), Lkb1-wt", "set-up": "species or system mouse", "settings": "5 days post infection, alamarBlue", "method": "(§1) (C) Validation study. Relative viability of Lkb1-wt and Lkb1-null cells infected with 340 individual hairpins for 5 days. Genes of interest are highlighted by the colors indicated.\n(§2) For array-based viral infection and assessment of proliferation, 2.5 μl virus was mixed with 250 cells in 100 μl medium containing 8 μg/ml polybrene per well in 96-well plates. The plates were spun at 2250 rpm/37° C. for 30 min. Immediately after spinning, supernatants were gently aspirated off and 100 μl fresh medium was added to each well of the 96-well plates. After 2 days incubation, medium was gently aspirated off and 100 fresh medium containing 3 μg/ml puromycin was added to each well of the 96-well plates. The plates were back to culture for additional 3 days and then the viable cells were monitored by alamarBlue (Invitrogen) assay according to manufacturer's instructions.\n(§3) To identify Lkb1-null-selective essential genes, a synthetic lethal screen was performed using a pooled 40K murine shRNA lentiviral library for each of the Lkb1-wt and Lkb1-null cell lines described above. Relative abundance of shRNAs in each cell line sample was determined by deep-sequencing analysis, and for every shRNA, a log 2 Fold Change (log 2FC) value was calculated from the difference in relative abundance at a late time point after infection versus the initial shRNA-infected sample. An unsupervised hierarchical clustering analysis of the ranked hairpins from the triplicate pooled shRNA library screens of Lkb1-wt and Lkb1-null mouse cancer cells is shown in FIG. 1A. […] The ranked hairpins were collapsed by using two methods, a RIGER analysis (KS t-test based statistics) and a weighted second best analysis to rank genes that selectively impaired proliferation/viability in Lkb1-null cells. A union of 344 genes, identified by the top 100 individual hairpins for 88 genes (Table 1) and the top 200 genes from both the KS (Table 2) and weighted second best (Table 3), was nominated as the initial prioritized list (FIG. 1B). 340 shRNAs, targeting 70 candidate genes from this prioritized list, were chosen for validation (Table 4). The 70 genes consisted of the top 10 candidates from the KS analysis, as well as 60 others involved in a range of biological processes in an attempt to represent all biological categories in the validation process. Validation was performed in an array format with an assay of relatively short duration (5 days post infection) compared to the primary pooled screen (28 days), which should be a more stringent selection, as it required the anti-proliferative effects to manifest in a short time period. […] Dtymk, Check1, and Pdhb are the top 3 candidate genes, each with 3 hairpins that scored in the validation assay (FIG. 1C)."}, "[2]": {"test_system": "Lkb1-wt cells", "assay": "IdU pulse-labeling after Dtymk knockdown, Lkb1-wt", "format": "cell-based, mouse", "settings": "for proportion of cells labeled with IdU: mean", "method": "(§4) (E) Lkb1-wt and Lkb1-null cells in 6-well plates were transduced with shDtymk-1 or shGFP. Two sets of the cells were plated into multiple chamber slides: one was 2 days and the other was 3 days post transduction. After overnight culturing, the cells were labeled with 100 μM IdU for 20 min then fixed for indirect immunofluorescence staining with anti-BrdU. The data represent mean±SD for 200˜300 cells. Representative merged images of BrdU (red) and DAPI (blue) in the indicated cells are shown (F).\n(§5) The lower expression of DTYMK in Lkb1-null cells causes the cells to be in jeopardy of DNA damage. To investigate how further knockdown of Dtymk and the consequent decrease in the dTTP pool could affect DNA metabolism, IdU pulse-labeling in Lkb1-wt and Lkb1-null cells was performed 2.5 and 3.5 days post-transduction with shDtymk-1. […] The representative images of Lkb1-wt and Lkb1-null cells co-stained for IdU and DAPI are shown (FIG. 5F). In addition, an overall lower proportion of labeled Lkb1-null than Lkb1-wt cells (43.1% vs. 57.7%) was observed, which may be related to the lower dNTP levels in Lkb1-null cells."}, "[3]": {"test_system": "Lkb1-null cells", "assay": "Array-based viral infection and cell proliferation assay (validation), Lkb1-null", "set-up": "species or system mouse", "method": "as §1, §2, §3"}, "[4]": {"test_system": "dTMP and dTDP levels in Lkb1-wt 634 and Lkb1-null t4 cells", "assay": "Metabolite analysis of dTMP and dTDP after Dtymk knockdown", "format": "cell-based, mouse", "settings": "3 days", "method": "(A) Graph of dTMP and dTDP levels in Lkb1-wt 634, Lkb1-null t4, and human LKB1-deficient NSCLC A549 cells transduced with the indicated shRNA for 3 days. The data represent mean±SD for 6 replicates.\nCells were plated into 6-well plates in RPMI 1640/10% dialyzed FBS/1% pen/strep and medium was changed daily. When the cells reached 80% confluence, they were washed 3 times with warm washing buffer (75 mM ammonium carbonate, pH7.4), and plates were then immediately placed on dry ice. 500 μl of extraction buffer (80% methanol, −80° C.) was added to each well and the plates were kept on dry ice for 15 min. The supernatants were collected into 1.5 ml eppendorf tubes, and another 500 μl of cold extraction buffer was added to each well. After 15 min incubation on dry ice, the supernatant and the cells were collected and pooled with the previously collected supernatant. The tubes were spun at 3750 rpm/4° C. for 30 min, and then supernatants were transferred into fresh tubes and saved at −80° C. All reactions were performed with 5 replicates.\nPrior to mass spectrometer injection, dried extracts were reconstituted in LCMS grade water. Non-targeted, flow-injection time-of-flight mass spectrometry was performed as described (Fuhrer et al., 2011). […] Mass spectra were recorded from m/z 50 to 1000 with a frequency of 1.4 spectra/s for 0.48 min using the highest resolving power (4 GHz HiRes). […]"}, "[5]": {"test_system": "Lkb1-null cells", "assay": "IdU pulse-labeling after Dtymk knockdown, Lkb1-null", "format": "cell-based, mouse", "settings": "for proportion of cells labeled with IdU: mean", "method": "as §4, §5"}},
  "data": [
    {"substance": "shDtymk-1: shRNA hairpin CAAGCTTCTGAATTCCTACTT targeting Mouse Dtymk", "values": [
      {"measurement": "WT ave-GR", "setting": "[1]", "value": 0.53},
      {"measurement": "proportion of cells labeled with IdU", "setting": "[2]; day 2.5 post infection", "value": 46.3, "unit": "%"},
      {"measurement": "proportion of cells labeled with IdU", "setting": "[2]; day 3.5 post infection", "value": 22.3, "unit": "%"},
      {"measurement": "drop of proportion of IdU-labeled cells", "setting": "[2]; in 3.5 days", "value": 61.2, "unit": "%"},
      {"measurement": "Growth of Lkb1-wt/Lkb1-null in array-based validation", "setting": "[3]; Table 6", "value": 4.16},
      {"measurement": "Null ave-GR", "setting": "[3]; validation, 5 days post infection, alamarBlue", "value": 0.13},
      {"measurement": "dTDP level", "setting": "[4]", "value": "moderate decrease"},
      {"measurement": "dTMP level", "setting": "[4]", "value": "significant increase"},
      {"measurement": "proportion of cells labeled with IdU", "setting": "[5]; day 2.5 post infection", "value": 17.2, "unit": "%"},
      {"measurement": "proportion of cells labeled with IdU", "setting": "[5]; day 3.5 post infection", "value": 5.8, "unit": "%"},
      {"measurement": "drop of proportion of IdU-labeled cells", "setting": "[5]; in 3.5 days", "value": 86.5, "unit": "%"}
    ]}
  ]
}
